Experiment [1] is described as follows: Displacement of [3H]-diprenorphine from opioid receptor in rat brain membrane homogenates after 1 hr by liquid scintillation counting. In kind it is cell membranes.
For experiment [2], the target named is Mu opioid receptor-like OR2 (Danio rerio, UniProt B8JHS2). Briefly: Displacement of [3H]-diprenorphine from zebrafish mu opioid receptor expressed in HEK293 cells after 1 hr by liquid scintillation counting. It is filed as cell-based.

The values below come from ChEMBL document CHEMBL3612028, “Design, synthesis, pharmacological evaluation and molecular dynamics of β-amino acids morphan-derivatives as novel ligands for opioid receptors” (Eur J Med Chem, 2015).

Structures are written as SMILES. pKi: −log10 of the molar value. Some results are limits rather than exact numbers.

Sequence of Mu opioid receptor-like OR2 (B8JHS2 whole entry): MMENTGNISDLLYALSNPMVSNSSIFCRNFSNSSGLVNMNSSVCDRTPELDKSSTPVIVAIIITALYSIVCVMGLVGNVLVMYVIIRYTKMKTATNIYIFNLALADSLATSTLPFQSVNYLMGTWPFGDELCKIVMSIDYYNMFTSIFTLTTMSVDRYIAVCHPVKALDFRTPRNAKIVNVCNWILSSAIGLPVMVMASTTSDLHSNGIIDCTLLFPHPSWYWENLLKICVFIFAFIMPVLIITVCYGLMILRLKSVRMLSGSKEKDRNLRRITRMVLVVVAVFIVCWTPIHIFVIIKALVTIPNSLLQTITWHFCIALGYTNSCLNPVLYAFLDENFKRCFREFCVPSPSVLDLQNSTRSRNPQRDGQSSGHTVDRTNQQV

With `COC(=O)[C@@H]1[C@@H]2CCC[C@H]1N(Cc1ccccc1)CC2`, the negative logarithm of the Ki (pKi) was 4.83 in experiment [1] and 4.43 in experiment [2].

As for `COC(=O)[C@@H]1[C@@H]2CCC[C@H]1N(C(=O)[C@@H](N)Cc1ccccc1)CC2`, the negative logarithm of the Ki (pKi) in experiment [1] was 4.48; in experiment [2] it was 4.12.

For the compound `O=C(Oc1ccccc1)[C@@H]1[C@@H]2CCC[C@H]1NCC2`, the pKi was 4.96 in experiment [1] and 4.49 in experiment [2].

Regarding `O=C(Oc1cccc(O)c1)[C@@H]1[C@@H]2CCC[C@H]1NCC2`, the negative-log Ki (pKi) was 5.39 in experiment [1] and 5.02 in experiment [2].

As to `COC(=O)[C@@H]1[C@@H]2CCC[C@H]1N(CCc1ccccc1)CC2`, the pKi in experiment [1] was 5.57; in experiment [2], 5.08.

As for `COC(=O)[C@@H]1[C@@H]2CCC[C@H]1NCC2`, the negative logarithm of the Ki (pKi) in experiment [1] is 4.77; in experiment [2], 4.45.

Consider `COC(=O)[C@H](Cc1ccccc1)NC(=O)[C@@H]1[C@@H]2CCC[C@H]1NCC2`, for which the pKi in experiment [1] was 4.83; in experiment [2], 4.11.

As for `O=C(Oc1ccc(O)cc1)[C@@H]1[C@@H]2CCC[C@H]1NCC2`, the results for the negative logarithm of the Ki (pKi) in experiment [1] and in experiment [2] were 5.72 and 4.90, respectively.

As for `O=C(O)[C@@H]1[C@@H]2CCC[C@H]1NCC2`, in experiment [1], the negative logarithm of the Ki (pKi) is < 4.00.
